Source: patent publication US10770169B2, “Method of providing a treatment to a subject based on a dynamic pathway map” (THE REGENTS OF THE UNIVERSITY OF CALIFORNIA, priority 2010, dated 2020)
Read-outs that look alike come from different tables or passages of the source.

Experiments:
[1] = system: panel of 55 breast cancer cell lines; test: Cell growth inhibition assay (Cell Titer Glo, 72 h, 9 doses; GI50, TGI, LC50); type: cell-based, human; conditions: Homo sapiens, read-out: GI50 (converted)
[2] = system: luminal, basal, claudin-low and ERBB2AMP breast cancer cell lines; test: Associations of clinically relevant subtypes and response (non-parametric ANOVA or t-test on GI50 ranks); type: cell-based, human; conditions: Table 6; most sensitive subtype, FDR p<0.20
How it was run: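 GI50 values were compared between cell-line subtype groups by non-parametric ANOVA or t-test on ranks. P-values from three test sets were combined and FDR-corrected. Significant three-group effects were followed by post-hoc comparison of each group against all others, and FDR p<0.20 counted as significant.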

## C#Cc1cccc(Nc2ncnc3cc(OCCOC)c(OCCOC)cc23)c1 [Erlotinib]
[1]; AU565, AU565 cell line, censored GI50 values
  GI50: 13.2 µM
[1]; AU565, cell line AU565
  GI50: 13.2 µM
[1]; BT-20, BT20 cell line, censored GI50 values
  GI50: 2 µM
[1]; BT-20, cell line BT20
  GI50: 2 µM
[1]; BT-474, BT474 cell line, censored GI50 values
  GI50: 10.5 µM
[1]; BT-474, cell line BT474
  GI50: 10.5 µM
[1]; BT-483, cell line BT483
  GI50: 66.1 µM
[1]; BT-549, BT549 cell line, censored GI50 values
  GI50: 41.7 µM
[1]; BT-549, cell line BT549
  GI50: 41.7 µM
[1]; CAMA-1, cell line CAMA1
  GI50: 66.1 µM
[1]; HCC38, cell line HCC38
  GI50: 66.1 µM
[1]; HCC70, HCC70 cell line, censored GI50 values
  GI50: 1.74 µM
[1]; HCC70, cell line HCC70
  GI50: 1.74 µM
[1]; HCC202, HCC202 cell line, censored GI50 values
  GI50: 37.2 µM
[1]; HCC202, cell line HCC202
  GI50: 37.2 µM
[1]; HCC1143, cell line HCC1143
  GI50: 57.5 µM
[1]; HCC1187, HCC1187 cell line, censored GI50 values
  GI50: 7.59 µM
[1]; HCC1187, cell line HCC1187
  GI50: 7.59 µM
[1]; HCC1395, HCC1395 cell line, censored GI50 values
  GI50: 39.8 µM
[1]; HCC1395, cell line HCC1395
  GI50: 39.8 µM
[1]; HCC1419, HCC1419 cell line, censored GI50 values
  GI50: 10.7 µM
[1]; HCC1419, cell line HCC1419
  GI50: 10.7 µM
[1]; HCC1428, HCC1428 cell line, censored GI50 values
  GI50: 17.8 µM
[1]; HCC1428, cell line HCC1428
  GI50: 17.8 µM
[1]; HCC1500, HCC1500 cell line, censored GI50 values
  GI50: 6.46 µM
[1]; HCC1500, cell line HCC1500
  GI50: 6.46 µM
[1]; HCC1806, HCC1806 cell line, censored GI50 values
  GI50: 4.27 µM
[1]; HCC1806, cell line HCC1806
  GI50: 4.27 µM
[1]; HCC1937, HCC1937 cell line, censored GI50 values
  GI50: 38.9 µM
[1]; HCC1937, cell line HCC1937
  GI50: 38.9 µM
[1]; HCC1954, HCC1954 cell line, censored GI50 values
  GI50: 3.09 µM
[1]; HCC1954, cell line HCC1954
  GI50: 3.09 µM
[1]; HCC2185 cell line, censored GI50 values
  GI50: 23.4 µM
[1]; HCC3153 cell line, censored GI50 values
  GI50: 31.6 µM
[1]; LY2 cell line, censored GI50 values
  GI50: 33.1 µM
[1]; MCF7, cell line MCF7
  GI50: 66.1 µM
[1]; MDA-MB-157, cell line MDAMB157
  GI50: 50.1 µM
[1]; MDA-MB-175-VII, MDAMB175VII cell line, censored GI50 values
  GI50: 3.09 µM
[1]; MDA-MB-231, MDAMB231 cell line, censored GI50 values
  GI50: 39.8 µM
[1]; MDA-MB-231, cell line MDAMB231
  GI50: 39.8 µM
[1]; MDA-MB-361, cell line MDAMB361
  GI50: 64.6 µM
[1]; MDA-MB-436, cell line MDAMB436
  GI50: 55 µM
[1]; MDA-MB-453, cell line MDAMB453
  GI50: 44.7 µM
[1]; MDA-MB-468, MDAMB468 cell line, censored GI50 values
  GI50: 21.4 µM
[1]; MDA-MB-468, cell line MDAMB468
  GI50: 21.4 µM
[1]; SK-BR-3, SKBR3 cell line, censored GI50 values
  GI50: 15.8 µM
[1]; SK-BR-3, cell line SKBR3
  GI50: 15.8 µM
[1]; SUM52PE, SUM52PE cell line, censored GI50 values
  GI50: 31.6 µM
[1]; SUM52PE, cell line SUM52PE
  GI50: 31.6 µM
[1]; SUM149PT, SUM149PT cell line, censored GI50 values
  GI50: 2 µM
[1]; SUM149PT, cell line SUM149PT
  GI50: 2 µM
[1]; SUM185PE, cell line SUM185PE
  GI50: 66.1 µM
[1]; SUM225CWN, SUM225CWN cell line, censored GI50 values
  GI50: 7.08 µM
[1]; SUM225CWN, cell line SUM225CWN
  GI50: 7.08 µM
[1]; SUM1315MO2, SUM1315MO2 cell line, censored GI50 values
  GI50: 7.41 µM
[1]; SUM-159-PT, SUM159PT cell line, censored GI50 values
  GI50: 11.7 µM
[1]; SUM-159-PT, cell line SUM159PT
  GI50: 11.7 µM
[1]; T47D, cell line T47D
  GI50: 50.1 µM
[1]; UACC-812, UACC812 cell line, censored GI50 values
  GI50: 12.3 µM
[1]; UACC-812, cell line UACC812
  GI50: 12.3 µM
[1]; UACC-893, UACC893 cell line, censored GI50 values
  GI50: 12.3 µM
[1]; UACC-893, cell line UACC893
  GI50: 12.3 µM
[1]; ZR-75-1, cell line ZR751
  GI50: 66.1 µM
[1]; ZR-75B, cell line ZR75B
  GI50: 66.1 µM
[1]; cell line 600MPE
  GI50: 52.5 µM
[1]; cell line HCC2185
  GI50: 23.4 µM
[1]; cell line HCC3153
  GI50: 31.6 µM
[1]; cell line LY2
  GI50: 33.1 µM
[1]; cell line MDAMB134V
  GI50: 66.1 µM
[1]; cell line MDAMB175V
  GI50: 3.09 µM
[1]; cell line SUM1315MO
  GI50: 7.41 µM
[2]
  Subtype specificity: Basal
